Measurements: patent publication US7622487B2, “Piperidine derivative, process for producing the same, and use” (Takeda Pharmaceutical Company Limited, priority 2002, dated 2009)
pIC50: −log10 of the molar value. Counter-ions that a name gives are not always drawn.

Tested on: not given
Test: not given
Conditions: not given
With `CNC(=O)N1CC[C@H](OCc2cc(C(F)(F)F)cc(C(F)(F)F)c2)[C@H](Cc2ccccc2)C1` (relative stereo) [Example 405, cis-3-Benzyl-4-[[3,5-bis(trifluoromethyl)benzyl]oxy]-N-methyl-1-piperidinecarboxamide] the melting point was 160 to 161 °C.

Target: T1, substance P receptor from human lymphoblast cells (IM-9) (Homo sapiens, UniProt P25103)
T1 construct: The receptor was prepared from human lymphoblast cells (IM-9); endogenous in cells; host or cells: IM-9 human lymphoblast cells (crude membrane fraction, 40,000xG pellet)
T1 sequence (P25103 whole entry): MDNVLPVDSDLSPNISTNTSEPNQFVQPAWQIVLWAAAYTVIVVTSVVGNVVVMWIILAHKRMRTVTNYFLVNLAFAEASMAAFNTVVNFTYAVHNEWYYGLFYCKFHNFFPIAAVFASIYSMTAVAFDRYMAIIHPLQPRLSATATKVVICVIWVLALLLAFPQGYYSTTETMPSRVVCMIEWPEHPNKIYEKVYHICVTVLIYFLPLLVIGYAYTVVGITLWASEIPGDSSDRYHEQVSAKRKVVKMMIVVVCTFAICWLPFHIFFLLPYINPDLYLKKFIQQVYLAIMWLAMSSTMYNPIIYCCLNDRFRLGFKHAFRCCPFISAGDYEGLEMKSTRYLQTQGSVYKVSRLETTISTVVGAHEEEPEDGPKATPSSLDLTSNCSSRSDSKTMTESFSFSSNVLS
Test: Radioligand receptor binding inhibitory activity (125I-BHSP binding, receptor from human lymphoblast cells (IM-9))
Conditions: not given
Description: Radioligand receptor binding inhibitory activity (Binding inhibitory activity using receptor from human lymphoblast cells (IM-9))
The method of M. A. Cascieri et al., “Molecular Pharmacology 42, p. […] The receptor was prepared from human lymphoblast cells (IM-9). IM-9 cells (2×10^5 cells/ml) were inoculated and incubated for 3 days (one liter), which was then subjected to centrifuge for 5 minutes at 500×G to obtain cell pellets. […] The residue was twice washed with 30 ml of the above-mentioned buffer, which was then preserved frozen (−80° C.) as a specimen of the receptor.
The specimen was suspended in a reaction buffer (50 mM Tri-HCl buffer (pH 7.4), 0.02% bovine serum albumin, 1 mM phenylmethylsulfonyl fluoride, 2 μg/ml chymostatin, 40 μg/ml bacitracin and 3 mM manganese chloride) to have protein in the concentration of 0.5 mg/ml of protein and 100 μl portion of the suspension was used in the reaction. […] The amount of nonspecific binding was determined by adding substance P at a final concentration of 2×10^−6 M.
After the reaction, using a cell harvester (290 PHD, Cambridge Technology, Inc, U.S.A.), rapid filtration was carried out through a glass filter (GF/B, Whatman, U.S.A.) to stop the reaction. After washing three times with 250 μl of 50 mM Tris-HCl buffer (pH 7.4) containing 0.02% bovine serum albumin, the radioactivity remaining on the filter was determined with a gamma counter. Before use, the filter was immersed in 0.1% polyethyleneimine for 24 hours and air-dried.
Work on `COc1ccc(-n2nnnc2C(F)(F)F)cc1CNC1CCN(C(C)=O)CC1c1ccccc1` (racemic) [Example 762] yielded a pIC50 of 10.31.
`COc1ccc(-n2nnnc2C(F)(F)F)cc1CNC1CCN(C(=O)CCNC(C)=O)CC1c1ccccc1` (racemic) [Example 761] showed a pIC50 of 10.27.
In the case of `COc1ccc(-n2nnnc2C(F)(F)F)cc1CNC1CCN(C(=O)CNC(C)=O)CC1c1ccccc1` (racemic) [Example 753], the pIC50 was 10.14.

Same assay, conditions: 125I-BHSP binding, receptor from human lymphoblast cells (IM-9), 25° C., 30 minutes; read-out: IC50 Value
For `COCC(=O)N1CC[C@H](NCc2cc(-n3nnnc3C(F)(F)F)ccc2OC)[C@H](c2ccccc2)C1` (single isomer, unassigned) [Example 78, (+)-cis-1-(Methoxyacetyl)-N-[2-methoxy-5-[5-(trifluoromethyl)-1H-tetrazol-1-yl]benzyl]-3-phenyl-4-piperidineamine hydrochloride], the pIC50 was 10.22.
With `COc1ccc(-n2nnnc2C(F)(F)F)cc1CNC1CCN(C(=O)CS(C)(=O)=O)CC1c1ccccc1` (racemic) [Example 763] the pIC50 was 10.10.
For `CC(=O)N1CCC(C(=O)N2CC[C@H](OCc3cc(C(F)(F)F)cc(C(F)(F)F)c3)[C@H](c3ccccc3)C2)CC1` [Example 70, (+)-(3R,4S)-1-[(1-Acetyl-4-piperidinyl)carbonyl]-4-[[3,5-bis(trifluoromethyl)benzyl]oxy]-3-phenylpiperidine], the pIC50 was 9.82.
`COc1ccc(-n2nnnc2C(F)(F)F)cc1CNC1CCN(C(=O)C2CCN(S(C)(=O)=O)CC2)CC1c1ccccc1` (racemic) [Example 755] gave a pIC50 of 10.02.
In the case of `COc1ccc(-n2nnnc2C(F)(F)F)cc1CNC1CCN(C(=O)CN2C(=O)CCC2=O)CC1c1ccccc1` (racemic) [Example 764], the pIC50 was 10.38.
Work on `CNC(=O)N1CC[C@H](NCc2cc(-n3nnnc3C(F)(F)F)ccc2OC)[C@H](c2ccccc2)C1` (single isomer, unassigned) [Example 72, (+)-cis-4-[[2-Methoxy-5-[5-(trifluoromethyl)-1H-tetrazol-1-yl]benzyl]amino]-N-methyl-3-phenyl-1-piperidinecarboxamide hydrochloride] yielded a pIC50 of 10.49.
For `CNC(=O)N1CCC(OCc2cc(C(F)(F)F)cc(C(F)(F)F)c2)C(c2ccccc2)C1` (single isomer, unassigned; (+)) [Example 413, (+)-cis-4-[[3,5-Bis(trifluoromethyl)benzyl]oxy]-N-methyl-3-phenyl-1-piperidinecarboxamide], the pIC50 was 9.64.
`CCNC(=O)N1CCC(NCc2cc(-n3nnnc3C(F)(F)F)cc3c2OCC3)C(c2ccccc2)C1` (single isomer, unassigned; (-)) [Example 84, (−)-cis-N-Ethyl-3-phenyl-4-[[[5-[5-(trifluoromethyl)-1-H-tetrazol-1-yl]-2,3-dihydro-1-benzofuran-7-yl]methyl]amino]-1-piperidinecarboxamide hydrochloride] showed a pIC50 of 10.29.
In the case of `COc1ccc(-n2nnnc2C(F)(F)F)cc1CNC1CCN(C(=O)C2CCN(C(C)=O)CC2)CC1c1ccccc1` (single isomer, unassigned; (-)) [Example 81, (−)-cis-1-[(1-Acetyl-4-piperidinyl)carbonyl]-N-[2-methoxy-5-[5-(trifluoroinethyl)-1H-tetrazol-1-yl]benzyl]-3-phenyl-4-piperidineamine hydrochloride], the pIC50 was 10.24.
Work on `COc1ccc(-n2nnnc2C(F)(F)F)cc1CNC1CCN(C(=O)Cn2cnnn2)CC1c1ccccc1` (racemic) [Example 757] yielded a pIC50 of 10.17.
With `CCNC(=O)N1CCC(NCc2cc(OC(F)(F)F)ccc2OC)C(c2ccccc2)C1` (single isomer, unassigned; (+)) [Example 613, (+)-cis-N-Ethyl-4-[[2-methoxy-5-(trifluoromethoxy)benzyl]amino]-3-phenyl-1-piperidinecarboxamide] the pIC50 was 10.15.
With `CNC(=O)N1CCC(NCc2cc(-n3nnnc3C(F)(F)F)cc3c2OCC3)C(c2ccccc2)C1` (racemic) [Example 722] the pIC50 was 9.96.
With `CC(=O)N1CCC(C(=O)N2CC[C@H](NCc3cc(-n4nnnc4C(F)(F)F)cc4c3OCC4)[C@H](c3ccccc3)C2)CC1` (single isomer, unassigned) [Example 88, (−)-cis-1-[(1-Acetyl-4-piperidinyl)carbonyl]-3-phenyl-N-[[5-[5-(trifluoromethyl)-1H-tetrazol-1-yl]-2,3-dihydro-1-benzofuran-7-yl]methyl]-4-piperidineamine hydrochloride] the pIC50 was 10.22.
`COc1ccc(-n2nnnc2C(F)(F)F)cc1CNC1CCN(C(=O)CO)CC1c1ccccc1` (racemic) [Example 760] showed a pIC50 of 10.07.
For `CCNC(=O)N1CC[C@H](NCc2cc(-n3nnnc3C(F)(F)F)ccc2OC)[C@H](c2ccccc2)C1` (single isomer, unassigned) [Example 75, (+)-cis-N-Ethyl-4-[[2-methoxy-5-[5-(trifluoromethyl)-1H-tetrazol-1-yl]benzyl]amino]-3-phenyl-1-piperidinecarboxamide hydrochloride], the pIC50 was 10.60.
